Here are results for 4 compounds from ChEMBL document CHEMBL1201862, “PubChem BioAssay data set” (2004).

Assay in all cases: NCI anticancer screen, dose series, 48 h
Experiment [1] relates to SR.
In experiment [2] the test system is RXF 393.
Experiment [3] concerns OVCAR-4.
Experiment [4] deals with SW-620.
Experiment [5] concerns 786-0.
The test system of experiment [6] is CCRF-CEM.
For experiment [7], the system named is Hs-578T.
In experiment [8] the test system is DU-145.
Experiment [9] deals with SF-539.
Experiment [10] deals with LOX IMVI.
The test system of experiment [11] is SK-OV-3.
Experiment [12] deals with OVCAR-5.
Experiment [13] has as its system SF-268.
Experiment [14] deals with Malme-3M.
Experiment [15] relates to HL-60.
Experiment [16] has as its system SNB-75.
For experiment [17], the system named is COLO 205.
Experiment [18] concerns K562.
The subject of experiment [19] is UACC-62.
Experiment [20] concerns MOLT-4.

The structures appear in SMILES notation.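 Where inhibition never reached the appropriate level, the endpoint shown equals the highest concentration tested. Otherwise, values were interpolated linearly from a five-concentration, 48-hour dose response in 96-well plates. Abbreviation: GI50, concentration required for 50% inhibition of growth.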 The source made the active and inactive calls. Cut-off read from the data, not from the text of the source: active = GI50 up to about 1.1 µM and inactive = higher.

Take `C/C(=N\N)C(CN(C)C)C(c1ccccc1)c1c(O)c2ccccc2oc1=O` (stereo not given): the GI50 in experiment [1] was > 67.1 µM (inactive); in [2] it was > 55.6 µM (inactive); in experiment [3] it was > 65.6 µM (inactive); in experiment [4], > 100 µM (inactive); in experiment [5], > 100 µM (inactive); in experiment [6], > 27 µM (inactive). In addition, the GI50 in experiment [7] was > 100 µM (inactive); in experiment [8] it was > 100 µM (inactive); in experiment [9], > 100 µM (inactive); in experiment [10], > 94.4 µM (inactive); in experiment [11], > 100 µM (inactive); in experiment [12], > 100 µM (inactive). Further, the GI50 in experiment [13] is > 100 µM (inactive); in experiment [14] it was > 94.2 µM (inactive); in experiment [15], > 26.7 µM (inactive); in experiment [16], > 42.4 µM (inactive); in experiment [17], > 100 µM (inactive); in experiment [18], > 60 µM (inactive). The figures for the GI50 in experiment [19] and in experiment [20] were > 73.6 µM (inactive) and > 55.5 µM (inactive), respectively.

With `N=c1c2c(=S)n(-c3ccccc3)c(=S)n(-c3ccccc3)c2nc(SCCN2CCCC2)n1-c1ccccc1`, the GI50 in experiment [1] was 0.136 µM (active); in [2], 1.41 µM (inactive); in [3], 3 µM (inactive); in experiment [4] it was 1.76 µM (inactive); in experiment [5] it was 0.622 µM (active); in experiment [6], 0.347 µM (active). Moreover, the GI50 in [7] was 3.9 µM (inactive); in [8], 1.76 µM (inactive); in experiment [9], 5.02 µM (inactive); in experiment [10] it was 1.63 µM (inactive); in experiment [11], 12.6 µM (inactive); in experiment [12], 17.5 µM (inactive). The GI50 in experiment [13] is 2.7 µM (inactive); in [14], 2.17 µM (inactive); in experiment [15], 0.183 µM (active); in experiment [16], 2.66 µM (inactive); in experiment [17] it was 1.55 µM (inactive); in experiment [18], 0.762 µM (active). For the same compound, the GI50 in [19] is 1.63 µM (inactive); in experiment [20], 0.08 µM (active).

`COc1cc([C@@H]2c3cc4c(cc3[C@@H](Nc3ccc([N+](=O)[O-])cc3C(=O)c3ccccc3)[C@H]3COC(=O)[C@H]23)OCO4)cc(OC)c1OC`: the GI50 in experiment [1] is 0.177 µM (active); in experiment [2] it was 0.573 µM (active); in [3], > 41.8 µM (inactive); in experiment [4] it was 0.233 µM (active); in experiment [5], 0.425 µM (active); in experiment [6], 0.391 µM (active). The GI50 in experiment [7] was 5.05 µM (inactive); in [8] it was 0.434 µM (active); in experiment [9] it was 0.201 µM (active); in [10], 0.281 µM (active); in [11] it was 0.46 µM (active); in [12] it was 0.555 µM (active). Besides, the GI50 in experiment [13] was 0.472 µM (active); in experiment [14] it was 0.481 µM (active); in experiment [15], 0.211 µM (active); in experiment [16], > 100 µM (inactive); in experiment [17], 0.293 µM (active); in [18], 0.156 µM (active). Moreover, the GI50 in experiment [19] was 0.164 µM (active); in experiment [20] it was 0.306 µM (active).

In the case of `CCN1C(=O)/C(=C/Nc2ccccc2)S/C1=N/Nc1nc(-c2ccc(O)c(O)c2)cs1`, the GI50 is 2.7 µM (inactive) in experiment [1]; 3.39 µM (inactive) in experiment [2]; 40.8 µM (inactive) in experiment [3]; 8.47 µM (inactive) in [4]; 23 µM (inactive) in experiment [5]; 4.53 µM (inactive) in experiment [6]. Also, the GI50 in experiment [7] is 96.2 µM (inactive); in experiment [8] it was 5.64 µM (inactive); in [9], 2.07 µM (inactive); in experiment [10] it was 6.08 µM (inactive); in experiment [11], 33.5 µM (inactive); in experiment [12], > 100 µM (inactive). Moreover, the GI50 in experiment [13] was 23.4 µM (inactive); in experiment [14] it was 6.19 µM (inactive); in experiment [15] it was 2.33 µM (inactive); in experiment [16], 3.05 µM (inactive); in experiment [17] it was 35.5 µM (inactive); in experiment [18] it was 3.4 µM (inactive). Further, the GI50 is 6.4 µM (inactive) in experiment [19] and 5.53 µM (inactive) in experiment [20].
